Measurements taken from US20260274922A1, “SYNTHETIC ESTROGEN RECEPTOR (ER)-DERIVED PEPTIDE” (THE TEXAS A&M UNIVERSITY SYSTEM, priority 2023, published 2026).
Where no end group is shown, it is not given here. The star is where a group is joined. FITC = O=C1OC2(c3ccc(O)cc3Oc3cc(O)ccc32)c2ccc(NC(=S)*)cc21

Assays:
IRS1 protein domains = target: T1, IRS1 protein domains (Homo sapiens, UniProt P35568); experiment: AF1 peptide and IRS1 protein interaction (co-immunoprecipitation, FITC signal); assay type: binding; conditions: HEK293 cells, 10 μM FITC-labelled peptide 3 h
T1 construct: expressed in transfected cells; host or cells: HEK293
T1 sequence (P35568 1-300): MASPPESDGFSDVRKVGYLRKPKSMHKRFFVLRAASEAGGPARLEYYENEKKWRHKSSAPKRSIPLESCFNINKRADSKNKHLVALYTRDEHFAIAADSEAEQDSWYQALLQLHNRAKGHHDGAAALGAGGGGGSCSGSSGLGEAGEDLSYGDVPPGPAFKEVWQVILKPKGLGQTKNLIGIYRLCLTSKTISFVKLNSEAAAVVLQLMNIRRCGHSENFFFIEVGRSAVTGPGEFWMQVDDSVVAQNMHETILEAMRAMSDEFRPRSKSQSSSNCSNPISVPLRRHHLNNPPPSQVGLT
Procedure: AF1 peptide and IRS1 protein interaction. HEK293 cells were transfected with Flag-IRS1 or Flag-IRS1 truncated domains using lipofectamine 3000 for 30 h, followed by treatment of 10 μM control and AF1 peptides labelled with FITC fluorescence for 3 h. After 10 μM MG132 treatment for 1 h, cell protein was extracted, and Flag-labelled proteins were immunoprecipitated. The intensity of control and AF1 peptide was calculated through measuring FITC fluorescence signal with multiplex reader. The results were normalized using IgG group.

IRS1 = target: T2, IRS1 (Mus musculus, UniProt P35569); experiment: Effect of AF1 peptide on IRS1 phosphorylation at S302 in primary mouse hepatocytes (Western blot); assay type: cell-based; conditions: WT primary hepatocytes
T2 construct: increased IRS1 protein levels by 50% (p<0.05) in WT primary hepatocytes; endogenous in cells; host or cells: primary mouse hepatocytes (C57BL/6J background; WT, ERα F/F or ERα LivKO)
T2 sequence (P35569 1-1233): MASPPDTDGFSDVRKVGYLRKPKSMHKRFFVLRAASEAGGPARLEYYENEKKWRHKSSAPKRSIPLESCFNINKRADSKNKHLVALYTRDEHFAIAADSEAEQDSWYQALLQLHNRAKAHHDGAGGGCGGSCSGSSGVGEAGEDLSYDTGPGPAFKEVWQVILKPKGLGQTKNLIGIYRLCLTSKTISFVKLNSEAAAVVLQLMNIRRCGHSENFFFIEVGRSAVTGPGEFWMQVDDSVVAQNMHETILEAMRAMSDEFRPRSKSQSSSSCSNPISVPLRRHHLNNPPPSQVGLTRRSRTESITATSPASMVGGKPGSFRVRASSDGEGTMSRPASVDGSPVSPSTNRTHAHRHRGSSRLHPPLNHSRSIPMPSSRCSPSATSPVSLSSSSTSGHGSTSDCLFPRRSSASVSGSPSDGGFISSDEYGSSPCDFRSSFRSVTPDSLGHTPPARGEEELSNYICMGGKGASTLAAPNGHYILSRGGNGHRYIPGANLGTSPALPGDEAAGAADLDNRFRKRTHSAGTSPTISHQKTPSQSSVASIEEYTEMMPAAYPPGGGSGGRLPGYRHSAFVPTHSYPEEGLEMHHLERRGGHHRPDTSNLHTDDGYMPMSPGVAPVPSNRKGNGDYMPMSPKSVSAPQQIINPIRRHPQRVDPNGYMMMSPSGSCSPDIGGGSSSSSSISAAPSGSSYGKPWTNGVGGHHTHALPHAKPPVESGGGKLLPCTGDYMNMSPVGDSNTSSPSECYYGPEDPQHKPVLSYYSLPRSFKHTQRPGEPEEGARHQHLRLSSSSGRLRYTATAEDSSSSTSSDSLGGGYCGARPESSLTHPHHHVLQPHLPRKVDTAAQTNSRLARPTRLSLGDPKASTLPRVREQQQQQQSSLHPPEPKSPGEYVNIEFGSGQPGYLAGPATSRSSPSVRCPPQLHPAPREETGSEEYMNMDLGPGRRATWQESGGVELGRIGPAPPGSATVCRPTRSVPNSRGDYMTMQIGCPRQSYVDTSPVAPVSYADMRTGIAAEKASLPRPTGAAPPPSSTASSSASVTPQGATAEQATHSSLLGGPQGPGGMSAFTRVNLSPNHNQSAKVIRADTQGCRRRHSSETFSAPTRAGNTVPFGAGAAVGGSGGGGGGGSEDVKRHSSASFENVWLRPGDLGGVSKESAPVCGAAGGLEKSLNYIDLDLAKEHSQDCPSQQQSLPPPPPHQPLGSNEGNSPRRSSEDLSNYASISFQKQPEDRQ
Procedure: (§1) Primary hepatocytes isolation and cell culture. Primary hepatocytes were isolated. Male mice at age of 8-12 weeks were infused with a perfusion buffer A (calcium and magnesium-free HBSS supplemented with 10 mM HEPES, […], 1 mM glucose, and 1% penicillin-streptomycin, pH 7.4) through portal vein for 6-8 min. Then perfusion buffer A was changed to buffer B (calcium and magnesium-free HBSS supplemented with 10 mM HEPES, 1 mM CaCl2), 1 mM glucose, 1% penicillin-streptomycin, and 0.5 mg/mL collagenase II, pH 7.4). […] Liver cells were suspended and passed through a 70 μm cell strainer, followed by centrifuge at 1700 rpm for 2 min. Pellets were resuspended with Percoll at final concentration of 36% and centrifuged at 1800 rpm for 6 min. The hepatocyte pellet was washed and suspended with DMEM supplemented with 10% FBS and 1% penicillin-streptomycin in collagen-coated plates. The HepG2 cell line was purchased from Abcam and cultured with DMEM medium supplemented with 10% FBS and 1% penicillin-streptomycin in collagen-coated plates. The human embryo kidney (HEK) 293 cell line was purchased from Sigma and cultured with DMEM medium supplemented with 10% FBS and 1% penicillin-streptomycin. FBS-free DMEM medium was used to culture cells during the experiments.
(§2) Co-immunoprecipitation and Western blotting analysis. […] Protein bands were detected using a ChemiDoc image system.

[1] = system: insulin signaling (IRS1, pAKT); experiment: Insulin sensitivity in WT primary mouse hepatocytes (IRS1, insulin-stimulated AKT phosphorylation); assay type: cell-based
Procedure: as §1, §2

[2] = system: primary mouse hepatocytes; experiment: Hepatic glucose production (HGP) in primary hepatocytes upon glucagon treatment; assay type: cell-based; conditions: WT primary hepatocytes
Procedure: Hepatic glucose production. The primary mouse hepatocytes were isolated from 8-12-week-old male mice. Cells were resuspended in DMEM medium (2% FBS and 1% penicillin-streptomycin) for 3 h and cultured in HGP buffer (118 mM NaCl, 2.5 mM CaCl2, 4.8 mM KCl, 25 mM NaHCO3, 1.1 mM KH2PO4, 1.2 mM MgSO4, […], 0.6% BSA, 10 mM HEPES, 10 mM sodium DL-lactate, and 5 mM pyruvate, pH 7.4). Then cells were pretreated with 50 nM glucagon for 30 min, followed by 10 nM insulin treatment for 3 h, and glucose level in the medium was measured using Amplex Red Glucose Assay. The results were normalized by cell protein abundance.

Sequence: YGRKKRRQRRRTKASGMALLHEPLNRPQLKIPLERDSSKPAVYNY ({FITC}-YGRKKRRQRRRTKASGMALLHEPLNRPQLKIPLERDSSKPAVYNY) [AF1 peptide]
- interaction with IRS1 protein domains (IRS1 protein domains): interacted with the IRS1 1-300 domain
- decrease in pIRS1-S302 (IRS1): 75%
- increase in IRS1 protein levels (IRS1; FIG. 6G): 50%
- enhancement in insulin-stimulated AKT phosphorylation at S473 [1]: 210%
- enhancement in insulin-stimulated AKT phosphorylation at T308 [1]: 82%
- increase in IRS1 protein levels ([1]; FIG. 6J): 90%
- glucagon-induced hepatic glucose production (HGP) [2]: did not impair
- enhancement of insulin-mediated suppression of HGP ([2]; under glucagon challenge): 22%
